Key:
human EP4 receptor = molecular target: T1, human EP4 receptor (Homo sapiens, UniProt P35408); assay: Binding ability to human EP receptors ([3H]PGE2 displacement), EP4; conditions: membranes expressing human EP4; [3H]PGE2 1 nM; Cheng-Prusoff; read-out: pKi (M) EP4 (converted)
T1 construct: expressed in transfected cells
Experimental: (§1) Membranes were prepared from cells stably transfected with human EP receptor cDNA. In brief, cells were cultured to confluency, scraped from culture flasks, and centrifuged (800 g, 8 minutes, 4° C.). Cells were twice washed in ice cold homogenisation buffer containing 10 mMTris-HCl, 1 mM EDTA.2Na, 250 mM sucrose, 1 mM PMSF, 0.3 mM indomethacin, pH 7.4, homogenised and re-centrifuged as before. The supernatant was stored on ice and pellets re-homogenised and re-spun. Supernatants were pooled and centrifuged at 40000 g, 10 minutes, 4° C. Resultant membrane pellets were stored at −80° C. until use. For assay, membranes expressing human EP4, EP3, EP2 or EP1 receptors were incubated in Millipore (MHVBN45) plates containing assay buffer, radiolabelled [^3H]PGE2 and 0.1 to 10 000 nM concentrations of compounds. Incubations were performed at suitable temperatures and for suitable times to allow equilibrium to be reached. Non-specific binding was determined in the presence of 10 uM PGE2. Bound and free radiolabel was separated by vacuum manifold filtration using appropriate wash buffers, and bound radiolabel was determined by scintillation counting. Constituents of each of the buffers are included in table 1 below. […] Raven Press, New York, 2nd edition.

human EP2 receptor = molecular target: T2, human EP2 receptor (Homo sapiens, UniProt P43116); assay: Binding ability to human EP receptors ([3H]PGE2 displacement), EP2; conditions: membranes expressing human EP2; [3H]PGE2 3 nM; Cheng-Prusoff; read-out: pKi (M) EP2 (converted)
T2 construct: expressed in transfected cells
T2 sequence (P43116 whole entry): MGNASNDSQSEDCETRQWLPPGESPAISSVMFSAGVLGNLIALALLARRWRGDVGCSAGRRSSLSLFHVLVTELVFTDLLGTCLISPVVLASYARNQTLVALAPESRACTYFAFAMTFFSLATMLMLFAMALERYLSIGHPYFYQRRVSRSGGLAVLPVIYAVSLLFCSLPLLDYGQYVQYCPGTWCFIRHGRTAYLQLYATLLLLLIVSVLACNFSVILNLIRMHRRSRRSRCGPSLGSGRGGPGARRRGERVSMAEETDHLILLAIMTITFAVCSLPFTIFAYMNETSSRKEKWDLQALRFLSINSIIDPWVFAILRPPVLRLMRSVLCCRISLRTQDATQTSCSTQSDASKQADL
Experimental: as §1

human EP3 receptor = molecular target: T3, human EP3 receptor (Homo sapiens, UniProt P43115); assay: Binding ability to human EP receptors ([3H]PGE2 displacement), EP3; conditions: membranes expressing human EP3; [3H]PGE2 2.5 nM; Cheng-Prusoff; read-out: pKi (M) EP3 (converted)
T3 construct: expressed in transfected cells
T3 sequence (P43115 1-390): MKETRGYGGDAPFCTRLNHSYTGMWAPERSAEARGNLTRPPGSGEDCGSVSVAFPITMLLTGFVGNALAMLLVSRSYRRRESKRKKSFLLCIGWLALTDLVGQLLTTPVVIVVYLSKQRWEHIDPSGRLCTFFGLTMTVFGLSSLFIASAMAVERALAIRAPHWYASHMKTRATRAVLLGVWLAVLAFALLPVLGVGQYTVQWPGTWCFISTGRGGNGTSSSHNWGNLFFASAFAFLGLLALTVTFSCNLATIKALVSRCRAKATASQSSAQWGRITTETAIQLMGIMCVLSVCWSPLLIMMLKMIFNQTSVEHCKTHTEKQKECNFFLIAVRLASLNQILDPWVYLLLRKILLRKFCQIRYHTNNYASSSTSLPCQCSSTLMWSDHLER
Experimental: as §1

[1] = molecular target: T4, human EP2 prostanoid receptors (Homo sapiens, UniProt P43116); assay: Agonist activity at recombinant human EP2 prostanoid receptors (cAMP in HEK-293 clones); assay type: cell-based
T4 construct: expressed in transfected cells; host or cells: HEK-293
T4 sequence (P43116 whole entry): as the sequence (P43116 whole entry) above
Experimental: Culture media was Minimal essential media (MEM), supplemented with 10% foetal bovine serum, 100 U/ml penicillin, […] streptomycin, 2.5 μg/ml fungizone, 2mM glutamine. Cells were cultured to confluency (3-4 days) prior to use. Culture media was removed, and confluent cells washed three times in MEM. […] Cells were then stimulated by the addition of 25 μl of PGE2 or agonists prepared in assay buffer. In antagonist studies, cells were pre-incubated with compounds for 30 minutes prior to PGE2-mediated stimulation Plates were incubated for 15 min at 37° C., before termination of the reaction by the addition of 25 μl 1M HCl. The plate was then frozen at -20° C. overnight before determination of cAMP concentration. Stimulated cAMP levels were determined by radioligand displacement binding. In brief, plates were thawed rapidly in a waterbath, and the samples neutralised by the addition of 25 μl 1M NaOH. 30 μl was transferred to Millipore plates pre-coated with 0.5% Polyethylenimine (PEI). Samples were diluted by addition of 90 μl cAMP determination buffer (50 mM Tris, 5 mM EDTA, pH 7.0). […] 15 μl of 2 nM (final concentration) [^3H] cAMP, and 15 μl of 3'5'-cAMP protein kinase (8 μg/well final concentration) prepared in cAMP determination buffer containing 0.1% BSA, were added to each well. Plates were incubated on ice for 2 hours, before bound and free radiolabel were separated by vacuum filtration harvesting using the Millipore vacuum manifold, using ice cold water as the termination buffer. The sealing mat was removed from the Millipore plates, and the filters allowed to dry overnight. 50 μl Microscint 0 (Packard Bioscience) was added to each well, and the plate counted using the Micro-Beta Trilux topcount ^3H program. cAMP accumulation was determined from the standard curve, and values calculated in pmoles cAMP/well. Antagonists affinities (pA2 values) were determined assuming a slope of unity and the […]-Schild equation, where pA2=log [concentration ratio-1]-log[antagonist].

T1 sequence (P35408 whole entry): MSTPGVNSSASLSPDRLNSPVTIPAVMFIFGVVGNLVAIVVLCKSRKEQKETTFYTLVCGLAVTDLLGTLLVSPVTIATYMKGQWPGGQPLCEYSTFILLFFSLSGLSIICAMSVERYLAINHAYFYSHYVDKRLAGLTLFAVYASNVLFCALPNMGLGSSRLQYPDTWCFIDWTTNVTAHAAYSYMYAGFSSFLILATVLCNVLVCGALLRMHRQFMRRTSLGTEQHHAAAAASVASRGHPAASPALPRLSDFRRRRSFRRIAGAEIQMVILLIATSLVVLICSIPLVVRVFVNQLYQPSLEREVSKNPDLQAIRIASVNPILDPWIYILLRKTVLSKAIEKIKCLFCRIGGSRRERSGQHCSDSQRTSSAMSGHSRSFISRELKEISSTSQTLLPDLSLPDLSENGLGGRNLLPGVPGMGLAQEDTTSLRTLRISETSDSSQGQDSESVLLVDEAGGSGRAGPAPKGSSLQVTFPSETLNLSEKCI

SMILES | Ki (human EP4 receptor) | Ki (human EP2 receptor) | Ki (human EP3 receptor) | EC50 ([1]; HEK-293 stably transfected with human EP2, cAMP accumulation, read-out: pEC50 EP2 (converted)) | activity (EP2 part) ([1]; functional classification at EP2)
O=C(O)Cc1cccc(NC(=O)c2ccc(-c3ccc(Cl)cc3Cl)o2)c1 [Compound 25, (3-{[5-(2,4-Dichloro-phenyl)-furan-2-carbonyl]-amino}-phenyl)-acetic acid] | > 1e-05 M | < 1e-05 M | > 1e-05 M |  | 
O=C(O)Cc1cccc(NC(=O)c2ccc(-c3cccc(OC(F)(F)F)c3)o2)c1 [Compound 32, (3-{[5-(3-Trifluoromethoxy-phenyl)-furan-2-carbonyl]-amino}-phenyl)-acetic acid] | < 1e-05 M | < 1e-06 M | > 1e-05 M |  | 
O=C(O)Cc1cccc(NC(=O)c2ccc(-c3ccc(OC(F)(F)F)cc3)o2)c1 [Compound 33, (3-{[5-(4-Trifluoromethoxy-phenyl)-furan-2-carbonyl]-amino}-phenyl)-acetic acid] | > 1e-05 M | < 1e-05 M | > 1e-05 M |  | 
CC(C)c1ccc(-c2ccc(C(=O)Nc3cccc(CC(=O)O)c3)o2)cc1 [Compound 35, (3-{[5-(4-Isopropyl-phenyl)-furan-2-carbonyl]-amino}-phenyl)-acetic acid] | > 1e-05 M | < 1e-05 M | > 1e-05 M |  | 
O=C(O)Cc1cccc(NC(=O)c2ccc(-c3ccco3)o2)c1 [Compound 38, {3-[([2,2′]Bifuranyl-5-carbonyl)-amino]-phenyl}-acetic acid] | > 1e-05 M | < 1e-05 M | > 1e-05 M |  | 
O=C(O)Cc1cccc(NC(=O)c2ccc(-c3ccccc3)s2)c1 [Compound 43, {3-[(5-Phenyl-thiophene-2-carbonyl)-amino]-phenyl}-acetic acid] | > 1e-05 M | < 1e-05 M | > 1e-05 M |  | 
O=C(O)Cc1cccc(NC(=O)c2ccc(F)c(-c3ccccc3)c2)c1 [Compound 46, {3-[(6-Fluoro-biphenyl-3-carbonyl)-amino]-phenyl}-acetic acid] | > 1e-05 M | < 1e-05 M | > 1e-05 M |  | 
Cc1cc(-c2ccccc2)ccc1C(=O)Nc1cccc(CC(=O)O)c1 [Compound 47, {3-[(3-Methyl-biphenyl-4-carbonyl)-amino]-phenyl}-acetic acid] | > 1e-05 M | < 1e-06 M | > 1e-05 M |  | 
O=C(O)Cc1cccc(NC(=O)c2ccc(-c3ccccc3)cc2Cl)c1 [Compound 48, {3-[(3-Chloro-biphenyl-4-carbonyl)-amino]-phenyl}-acetic acid] | > 1e-05 M | < 1e-05 M | > 1e-05 M |  | 
Cc1cc(C(=O)Nc2cccc(CC(=O)O)c2)sc1-c1ccccc1 [Compound 50, {3-[(4-Methyl-5-phenyl-thiophene-2-carbonyl)-amino]-phenyl}-acetic acid] | > 1e-05 M | < 1e-05 M | > 1e-05 M |  | 
O=C(O)Cc1cccc(NC(=O)c2cnc(-c3ccccc3)[nH]2)c1 [Compound 53, {3-[(2-Phenyl-1H-imidazole-5-carbonyl)-amino]-phenyl}-acetic acid] | > 1e-05 M | < 1e-05 M | > 1e-05 M |  | 
O=C(Nc1cccc(Cc2nnn[nH]2)c1)c1ccc(-c2cccc(F)c2)o1 [Compound 86, 5-(3-Fluoro-phenyl)-furan-2-carboxylic acid [3-(1H-tetrazol-5-ylmethyl)-phenyl]-amide] | > 1e-05 M | < 1e-07 M |  | < 0.1 µM | EP2 Agonist
O=C(O)/C=C/c1cccc(NC(=O)c2ccc(-c3cc(C(F)(F)F)cc(C(F)(F)F)c3)o2)c1 [Compound 102, 3-(3-{[5-(3,5-Bis-trifluoromethyl-phenyl)-furan-2-carbonyl]-amino}phenyl)-acrylic acid] | > 1e-05 M | < 1e-07 M | > 1e-05 M |  | 
O=C(O)/C=C/c1cccc(NC(=O)c2ccc(-c3cccc(OCc4ccccc4)c3)o2)c1 [Compound 104, 3-(3-{[5-(3-Benzyloxy-phenyl)-furan-2-carbonyl]-amino}-phenyl)-acrylic acid] | > 1e-05 M | < 1e-07 M | > 1e-05 M |  | 

More lines, now with the values ahead:

Ki (human EP4 receptor) | Ki (human EP2 receptor) | Ki (human EP3 receptor) | EC50 ([1]; HEK-293 stably transfected with human EP2, cAMP accumulation, read-out: pEC50 EP2 (converted)) | activity (EP2 part) ([1]; functional classification at EP2) | SMILES
> 1e-05 M | < 1e-05 M | > 1e-05 M |  |  | Cc1ccc(-c2ccc(C(=O)Nc3cccc(CC(=O)O)c3)o2)cc1 [Compound 22, (3-{[5-(4-Methyl-phenyl)-furan-2-carbonyl]-amino}-phenyl)-acetic acid]
> 1e-05 M | < 1e-05 M | > 1e-05 M |  |  | O=C(O)Cc1cccc(NC(=O)c2ccc(-c3ccccc3C(F)(F)F)o2)c1 [Compound 23, (3-{[5-(2-Trifluoromethyl-phenyl)-furan-2-carbonyl]-amino}-phenyl)-acetic acid]
> 1e-05 M | < 1e-06 M | > 1e-05 M |  |  | O=C(O)Cc1cccc(NC(=O)c2ccc(-c3cccc(C(F)(F)F)c3)o2)c1 [Compound 24, (3-{[5-(3-Trifluoromethyl-phenyl)-furan-2-carbonyl]-amino}-phenyl)-acetic acid]
> 1e-05 M | < 1e-06 M | > 1e-05 M |  |  | Cc1ccccc1-c1ccc(C(=O)Nc2cccc(CC(=O)O)c2)o1 [Compound 28, (3-{[5-(2-Methyl-phenyl)-furan-2-carbonyl]-amino}-phenyl)-acetic acid]
> 1e-05 M | < 1e-05 M | > 1e-05 M |  |  | O=C(O)c1cc2cc(NC(=O)c3ccc(-c4ccccc4)o3)ccc2[nH]1 [Compound 59, 5-[(5-Phenyl-furan-2-carbonyl)-amino]-1H-indole-2-carboxylic acid]
> 1e-05 M | < 1e-05 M | > 1e-05 M |  |  | O=C(O)c1ccc2cc(NC(=O)c3ccc(-c4ccccc4)o3)ccc2c1 [Compound 63, 6-[(5-Phenyl-furan-2-carbonyl)-amino]-naphthalene-2-carboxylic acid]
> 1e-05 M | < 1e-05 M | > 1e-05 M |  |  | NC(=O)Cc1cccc(NC(=O)c2ccc(-c3ccccc3)o2)c1 [Compound 73, 5-Phenyl-furan-2-carboxylic acid (3-carbamoylmethyl-phenyl)-amide]
> 1e-05 M | < 1e-07 M | > 1e-05 M |  |  | O=C(Nc1cccc(Cc2nnn[nH]2)c1)c1ccc(-c2ccccc2)o1 [Compound 75, 5-Phenyl-furan-2-carboxylic acid [3-(1H-tetrazol-5-ylmethyl)-phenyl]-amide]
> 1e-05 M | < 1e-06 M | > 1e-05 M |  |  | O=C(O)c1cc2cc(NC(=O)c3ccc(-c4ccccc4)o3)ccc2o1 [Compound 96, 5-[(5-Phenyl-furan-2-carbonyl)-amino]-benzofuran-2-carboxylic acid]
< 1e-06 M | < 1e-07 M | > 1e-05 M |  |  | O=C(O)/C=C/c1cccc(NC(=O)c2ccc(-c3cccc(-c4ccccc4)c3)o2)c1 [Compound 103, 3-{3-[(5-Biphenyl-3-yl-furan-2-carbonyl)-amino]-phenyl}-acrylic acid]
> 1e-05 M | < 1e-06 M | > 1e-05 M |  |  | O=C(O)/C=C/c1cccc(NC(=O)c2ccc(-c3ccc(-c4ccccc4)c(F)c3)o2)c1 [Compound 105, 3-(3-{[5-(2-Fluoro-biphenyl-4-yl)-furan-2-carbonyl]-amino}-phenyl)-acrylic acid]

— patent US7326732B2, “EP2 receptor agonists” (Pharmagene Laboratories Limited, priority 2004, dated 2008)
